This note sets out measurements from patent publication US8318731B2, “Pyrrolopyrimidines” (Janssen Pharmaceutica NV, priority 2007, dated 2012).

The subject of test [1] is A2780. As to the kind of experiment: Cellular proliferation assay (Alamar blue), A2780. Format: cell-based. Particulars: Homo sapiens, A2780, A2780 cells; 10% FCS; 72 h with compound; Alamar blue 24 h; read-out: pIC50 A2780 (converted). How it is done: (§1) Cellular proliferation of these compounds was tested on a panel of different cell lines in the presence of 10% FCS serum (37° C. and 5% (v/v) CO2). In a first step these cells were seeded and incubated for 24 hours in the absence of compound. In the second step the cells were incubated for 72 hours with the compounds to be tested for 72 hours. The viable cell number was finally assessed in a standard Alamar blue cell viability assay.
(§2) The viable cell number was assessed by incubation for either 4 h (HCT-116, H1299) 6 h (U87-MG) or 24 h (A2780, PC3, MDA-MB-231) with Alamar blue (Resazurin 9 μg/ml, K-Ferrocyanide 90 μM, K-Ferricyanide 90 μM) and the converted fluorescent product was quantified on a fluorescent plate readed (544 nm/590 nm). Effect of the compounds is calculated as of on control cells.

The test system of test [2] is MDA-MB-231. As to the kind of experiment: Cellular proliferation assay (Alamar blue), MDA-MB-231. Particulars: Homo sapiens, MDA-MB-231, MDA-MB-231 cells; 10% FCS; 72 h with compound; Alamar blue 24 h; read-out: pIC50 MDA/MB231 (converted). In kind it is cell-based. Here is the method: as §1, §2
In general terms: The colour change of resazurin is a common sign of viable cells or microbes.

Test [3] relates to H1299. The test is described as follows: Cellular proliferation assay (Alamar blue), H1299. In kind it is cell-based. Particulars: Homo sapiens, NCI-H1299, H1299 cells; 10% FCS; 72 h with compound; Alamar blue 4 h; read-out: pIC50 H1299 (converted). How it is done: as §1, §2
Test [4] relates to PC3. As to the kind of experiment: Cellular proliferation assay (Alamar blue), PC3. Format: cell-based. The following applies: Homo sapiens, PC-3, PC-3 cells; 10% FCS; 72 h with compound; Alamar blue 24 h; read-out: pIC50 PC-3 (converted). How it is done:
as §1, §2

The test system of test [5] is HCT-116. As to the kind of experiment: Cellular proliferation assay (Alamar blue), HCT-116. In kind it is cell-based. The following applies: Homo sapiens; HCT-116 cells; 10% FCS; 72 h with compound; Alamar blue 4 h; read-out: pIC50 HCT-116 (converted). Here is the method:
as §1, §2

Test [6] has as its target T1, PLK4 (h) (Homo sapiens, UniProt O00444).
T1 sequence (O00444 1-970): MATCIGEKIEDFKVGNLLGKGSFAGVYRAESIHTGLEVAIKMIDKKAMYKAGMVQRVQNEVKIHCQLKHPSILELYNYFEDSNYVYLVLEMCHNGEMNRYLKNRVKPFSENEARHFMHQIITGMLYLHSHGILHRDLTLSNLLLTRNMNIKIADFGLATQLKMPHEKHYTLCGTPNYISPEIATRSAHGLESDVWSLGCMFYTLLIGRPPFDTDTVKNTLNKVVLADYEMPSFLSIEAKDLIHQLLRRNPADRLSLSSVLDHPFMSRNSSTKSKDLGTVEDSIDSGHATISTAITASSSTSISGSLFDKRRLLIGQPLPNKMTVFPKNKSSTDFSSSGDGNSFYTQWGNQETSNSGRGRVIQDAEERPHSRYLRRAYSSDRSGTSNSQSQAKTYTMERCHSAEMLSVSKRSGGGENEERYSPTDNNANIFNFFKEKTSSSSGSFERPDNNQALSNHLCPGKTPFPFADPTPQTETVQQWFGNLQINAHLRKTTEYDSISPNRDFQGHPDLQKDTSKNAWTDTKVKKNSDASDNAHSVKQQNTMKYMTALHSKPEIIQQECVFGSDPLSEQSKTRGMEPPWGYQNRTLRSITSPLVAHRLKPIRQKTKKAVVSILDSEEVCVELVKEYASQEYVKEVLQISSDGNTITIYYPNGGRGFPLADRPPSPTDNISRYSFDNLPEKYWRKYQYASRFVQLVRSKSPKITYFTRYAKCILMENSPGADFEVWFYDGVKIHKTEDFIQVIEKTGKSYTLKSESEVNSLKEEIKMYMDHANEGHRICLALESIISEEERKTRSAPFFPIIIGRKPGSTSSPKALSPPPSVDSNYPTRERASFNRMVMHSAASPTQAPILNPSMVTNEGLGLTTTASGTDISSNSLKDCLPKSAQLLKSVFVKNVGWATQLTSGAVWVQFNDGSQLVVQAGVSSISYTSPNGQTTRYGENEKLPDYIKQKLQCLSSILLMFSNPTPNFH
As to the kind of experiment: PLK-4 human kinase scintillation proximity assay (SPA). In kind it is biochemical. The following applies: 1 μM ATP, 60 minutes at r.t., read-out: PLK4 pIC50 (converted). How it is done: The in vitro inhibition of a panel of kinases was assessed using either the scintillation proximity assay (SPA) as described by Cook, N. D. et al., Advances in Experimental Medicine and Biology (1991), 36; p. 525-528.
In the SPA technology the activity of the kinase of interest is measured using an appropriate biotinylated substrate that is incubated with the aforementioned kinase protein in the presence of (^33P) radiolabeled ATP. (^33P) Phosphorylation of the substrate is subsequently measured through binding of the phosphorylated substrate to streptavidine coated beads that are based on the scintillant poly(vinyl toluene) (PVT-Beads). The scintillation intensity is detected by imaging on Leadseeker.
All kinases are pre-diluted to a 10× working concentration prior to addition into the assay. The composition of the dilution buffer for each kinase is detailed below.
In a final reaction volume of 30 μl, PLK4 (h) (19 μg/ml) is incubated with 50 mM Hepes pH 8.0, 10 mM MgCl2, 50 mM NaCl, 1 mM NaF, 1 mM DTT, 10 μM of peptide Biotin-RPRGQRDSSYYWE-OH, 1 μM ATP and 2 nM [γ-^33P-ATP] (6.0 μCi/ml). After incubation of 60 minutes at r.t., the reaction is stopped by addition of 40 μL of stop solution containing 8.7 mM EDTA, BSA 0.17%, 0.17% Triton X-100, 1.7 mg/ml SPA beads (GE-healthcare). The plate is centrifuged and read for Scintillation imaging on Leadseeker.

In test [7] the test system is U87-MG. The test is described as follows: Cellular proliferation assay (Alamar blue), U87-MG. Format: cell-based. Particulars: Homo sapiens, U-87 MG; U87-MG cells; 10% FCS; 72 h with compound; Alamar blue 6 h; read-out: pIC50 U87MG (converted). How it is done: as §1, §2

As to `CN1CCCN(C)C(=O)COc2cc(ccc2OCCN2CCOCC2)Nc2ncnc3[nH]cc(c23)C1` [Compound 126], the IC50 in test [1] is 2 µM; in test [2] it was 10 µM; in test [3], 7.94 µM; in test [4] it was 7.94 µM; in test [5], 3.98 µM; in test [6] it was 0.501 µM. Also, the IC50 in test [7] is 6.31 µM.

`COc1cc(NC(=O)COc2ccc3cc2OCC(=O)N(C)CCCN(C)Cc2cn(C)c4ncnc(c24)N3)cc(OC)c1OC` [Compound 145]: the IC50 in test [1] is more than 10 µM; in test [2], more than 10 µM; in test [3], more than 10 µM; in test [4], more than 10 µM; in test [5], more than 10 µM; in test [6], 5.01 µM. In test [7], the IC50 was more than 10 µM.

For the compound `CN1CCCN(C)C(=O)CCCOc2cc(ccc2N2CCOCC2)Nc2ncnc3[nH]cc(c23)C1` [Compound 44], the IC50 in test [1] is more than 10 µM; in test [2], more than 10 µM; in test [3], more than 10 µM; in test [4], more than 10 µM; in test [5], more than 10 µM; in test [6] it was 1.58 µM. For the same compound, the IC50 in test [7] was more than 10 µM.

As for `CN1CCCN(C)C(=O)COc2cccc(c2)Nc2ncnc3[nH]cc(c23)C1` [Compound 120], the IC50 in test [1] is 0.501 µM; in test [2] it was 1 µM; in test [3], 1 µM; in test [4], 1 µM; in test [5], 0.398 µM; in test [6], 0.0316 µM. For the same compound, the IC50 in test [7] is 0.794 µM.

For `COc1ccc2cc1OCCCNC(=O)CN(C)Cc1c[nH]c3ncnc(c13)N2` [Compound 6], the IC50 is 1.58 µM in test [1]; 5.01 µM in test [2]; 1.58 µM in test [3]; 3.98 µM in test [4]; 1.26 µM in test [5]; 0.501 µM in test [6]. Also, the IC50 in test [7] was 1.58 µM.

Consider `CN1CCCN(C)C(=O)COc2cc(ccc2OCCOc2ccc(Cl)cc2)Nc2ncnc3[nH]cc(c23)C1` [Compound 134], for which the IC50 in test [1] is 0.0398 µM; in test [2], 5.01 µM; in test [3], 0.398 µM; in test [4], 6.31 µM; in test [5], 0.126 µM; in test [6], 0.0794 µM. Further, in test [7], the IC50 was 3.16 µM.

As to `COc1ccc2cc1OCCNC(=O)CN(C)Cc1c[nH]c3ncnc(c13)N2` [Compound 22], the IC50 in test [1] is 2 µM; in test [2], 10 µM; in test [3] it was 3.16 µM; in test [4], 6.31 µM; in test [5], 2 µM; in test [6], 1.26 µM. Besides, in test [7], the IC50 is 2.51 µM.

For `CN1CCN(C)C(=O)CCc2cccc(c2)Nc2ncnc3[nH]cc(c23)C1` [Compound 20], the IC50 in test [1] is more than 10 µM; in test [2] it was more than 10 µM; in test [3], 10 µM; in test [4], more than 10 µM; in test [5] it was 7.94 µM; in test [6], 0.631 µM. In addition, the IC50 in test [7] is more than 10 µM.

On to `COCCOCCOc1ccc2cc1OCC(=O)N(C)CCCN(C)Cc1c[nH]c3ncnc(c13)N2` [Compound 128], for which the IC50 in test [1] is 0.398 µM; in test [2] it was 5.01 µM; in test [3], 1 µM; in test [4], 6.31 µM; in test [5] it was 0.501 µM; in test [6] it was 0.0251 µM. Besides, the IC50 in test [7] was 2.51 µM.

With `COc1ccc2cc1OCC(=O)N[C@@H](C)CN(C)CCCc1c[nH]c3ncnc(c13)N2` [Compound 28], the IC50 in test [1], in test [2], in test [3], in test [4], in test [5] and in test [6] was more than 10 µM in each case. Also, in test [7], the IC50 was more than 10 µM.

On to `COc1ccc2cc1CN(C)CC(=O)N(C)CCCc1c[nH]c3ncnc(c13)N2` [Compound 34], for which the IC50 in test [1], in test [2], in test [3], in test [4], in test [5] and in test [6] was more than 10 µM each time. For the same compound, the IC50 in test [7] is more than 10 µM.

With `COc1ccc2cc1OCCCC(=O)N(C)CCN(C)Cc1c[nH]c3ncnc(c13)N2` [Compound 1], the IC50 in test [1] was more than 10 µM; in test [2] it was more than 10 µM; in test [3], more than 10 µM; in test [4], more than 10 µM; in test [5], more than 10 µM; in test [6] it was 0.126 µM. Also, in test [7], the IC50 was more than 10 µM.

For the compound `CN1CCCN(C)C(=O)COc2cc(ccc2N2CCOCC2)Nc2ncnc3[nH]cc(c23)C1` [Compound 85], the IC50 in test [1] is 1.58 µM; in test [2] it was 7.94 µM; in test [3] it was 2 µM; in test [4], 5.01 µM; in test [5], 2 µM; in test [6] it was 0.158 µM. Besides, in test [7], the IC50 is 2 µM.

As for `CN1CCN(C)C(=O)CCCOc2cc(ccc2Cl)Nc2ncnc3[nH]cc(c23)C1` [Compound 42], the IC50 in test [1] is more than 10 µM; in test [2], more than 10 µM; in test [3], more than 10 µM; in test [4], more than 10 µM; in test [5], more than 10 µM; in test [6], 0.794 µM. For the same compound, the IC50 in test [7] is more than 10 µM.

Take `CN1CCCN(C)C(=O)COc2cc(ccc2Cl)Nc2ncnc3c2c(cn3C)C1` [Compound 146]: the IC50 in test [1] is more than 10 µM; in test [2], more than 10 µM; in test [3], more than 10 µM; in test [4], more than 10 µM; in test [5] it was more than 10 µM; in test [6], 0.631 µM. In addition, the IC50 in test [7] is more than 10 µM.

Consider `O=C1CCCOc2cccc(c2)Nc2ncnc3[nH]cc(c23)CN2CCN1CC2` [Compound 107], for which the IC50 is more than 10 µM in test [1]; more than 10 µM in test [2]; more than 10 µM in test [3]; more than 10 µM in test [4]; more than 10 µM in test [5]; 6.31 µM in test [6]. For the same compound, in test [7], the IC50 was more than 10 µM.
